Reference: ChEMBL document CHEMBL1140005, “Phenylpropanoic acid derivatives bearing a benzothiazole ring as PPARdelta-selective agonists” (Bioorg Med Chem Lett, 2007)

Tests used:
[1] = target: T1, Peroxisome proliferator-activated receptor delta (Homo sapiens, UniProt Q03181)
T1 sequence (Q03181 whole entry): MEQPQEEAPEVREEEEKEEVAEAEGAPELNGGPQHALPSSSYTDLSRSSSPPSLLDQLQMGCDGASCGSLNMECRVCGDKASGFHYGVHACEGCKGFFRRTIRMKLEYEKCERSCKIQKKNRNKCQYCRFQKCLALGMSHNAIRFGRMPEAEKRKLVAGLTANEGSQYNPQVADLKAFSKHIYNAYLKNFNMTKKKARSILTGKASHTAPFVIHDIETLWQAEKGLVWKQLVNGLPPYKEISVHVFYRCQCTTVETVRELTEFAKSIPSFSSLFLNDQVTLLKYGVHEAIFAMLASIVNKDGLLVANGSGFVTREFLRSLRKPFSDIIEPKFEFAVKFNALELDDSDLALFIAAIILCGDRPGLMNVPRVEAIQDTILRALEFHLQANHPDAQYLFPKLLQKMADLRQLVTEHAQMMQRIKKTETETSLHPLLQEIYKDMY

[2] = target: T2, Peroxisome proliferator-activated receptor gamma (Homo sapiens, UniProt P37231); experiment: Agonist activity at human PPARgamma receptor expressed in HEK293 cells by GAL4 transactivation assay; assay type: functional, cell-based
T2 sequence (P37231 whole entry): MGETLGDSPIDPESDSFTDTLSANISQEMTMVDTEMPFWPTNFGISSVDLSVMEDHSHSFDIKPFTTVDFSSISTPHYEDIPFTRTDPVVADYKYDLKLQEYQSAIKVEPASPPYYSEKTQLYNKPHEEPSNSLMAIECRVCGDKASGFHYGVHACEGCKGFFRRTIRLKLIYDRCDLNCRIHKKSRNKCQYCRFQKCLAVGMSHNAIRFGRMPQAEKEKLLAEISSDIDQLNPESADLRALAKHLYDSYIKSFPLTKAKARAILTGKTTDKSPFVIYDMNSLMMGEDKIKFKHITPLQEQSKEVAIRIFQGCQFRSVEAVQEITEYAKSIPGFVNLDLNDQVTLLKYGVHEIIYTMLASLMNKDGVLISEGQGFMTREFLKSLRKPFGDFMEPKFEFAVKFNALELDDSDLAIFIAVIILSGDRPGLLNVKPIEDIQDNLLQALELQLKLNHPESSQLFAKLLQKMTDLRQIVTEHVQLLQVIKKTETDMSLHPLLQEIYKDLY

[3] = target: T3, Peroxisome proliferator-activated receptor alpha (Homo sapiens, UniProt Q07869); experiment: Agonist activity at human PPARalpha receptor expressed in HEK293 cells by GAL4 transactivation assay; assay type: functional, cell-based
T3 sequence (Q07869 whole entry): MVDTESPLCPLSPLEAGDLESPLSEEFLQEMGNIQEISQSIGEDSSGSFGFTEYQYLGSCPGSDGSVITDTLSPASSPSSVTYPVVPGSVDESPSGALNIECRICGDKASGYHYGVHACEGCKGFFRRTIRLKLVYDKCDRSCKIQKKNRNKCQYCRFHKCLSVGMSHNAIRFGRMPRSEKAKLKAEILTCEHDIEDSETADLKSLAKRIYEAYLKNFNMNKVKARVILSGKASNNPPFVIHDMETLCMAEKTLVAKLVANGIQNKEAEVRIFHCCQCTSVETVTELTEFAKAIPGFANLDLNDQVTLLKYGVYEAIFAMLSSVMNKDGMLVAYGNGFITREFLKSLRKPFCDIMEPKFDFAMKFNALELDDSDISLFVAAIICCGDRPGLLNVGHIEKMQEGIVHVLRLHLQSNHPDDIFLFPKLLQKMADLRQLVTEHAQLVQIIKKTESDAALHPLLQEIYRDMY

EC50 [1]	Structure (SMILES)	EC50 [2]	EC50 [3]
2810 nM	O=C(O)CCc1ccc(OCCN(Cc2ccccc2)c2nc3ccccc3s2)cc1		
4880 nM	CC(C)(C)c1ccc(CN(CCOc2ccc(CCC(=O)O)cc2)c2nc3ccccc3s2)cc1	6340 nM	
1740 nM	O=C(O)CCc1ccc(OCCN(Cc2cccs2)c2nc3ccccc3s2)cc1		
2610 nM	Cc1ccc2nc(N(CCOc3ccc(CCC(=O)O)cc3)Cc3ccccc3)sc2c1		
2550 nM	O=C(O)CCc1ccc(OCCCN(Cc2ccccc2)c2nc3ccccc3s2)cc1		
1170 nM	Cc1cc(OCCN(Cc2ccccc2)c2nc3ccccc3s2)ccc1CCC(=O)O		
1360 nM	O=C(O)CCc1ccc(OCCN(Cc2ccccc2)c2nc3ccc(Cl)cc3s2)cc1		
2970 nM	CCc1cc(OCCN(Cc2ccccc2)c2nc3ccccc3s2)ccc1CCC(=O)O		

Structure (SMILES)	EC50 [1]	EC50 [2]	EC50 [3]
O=C(O)CCc1ccc(OCCN(Cc2ccc(C(F)(F)F)cc2)c2nc3ccccc3s2)cc1	940 nM	3690 nM	4460 nM
Cc1cc(CCC(=O)O)ccc1OCCCN(Cc1cccs1)c1nc2ccc(Cl)cc2s1	390 nM		
